Test results from publication PMC4109680, “Identification and Preclinical Pharmacology of the γ-Secretase Modulator BMS-869780” (International Journal of Alzheimer's Disease, 2014).

Key:
[1] = test system: APP-CTF (H4-APPsw); test: Western blot of APP-CTFα and APP-CTFβ in H4-APPsw cell lysates; type: cell-based, human; details: overnight; for increase in APP-CTFα: BMS-869780 100-3000 nM averaged across doses, BMS-299897 30-300 nM; for APP-CTFβ levels: high concentrations
Method: For western blotting of APP-CTF in cell lysates, H4-APPsw cell cultures in T-75 flasks were rinsed with DPBS, harvested, isolated by centrifugation, and stored at −80°C until needed. Cells were suspended in SDS sample buffer (20,000 cells/μL), boiled for 10 min, and centrifuged 3000 ×g for 5 min. Total protein content was determined using an assay kit (EZQ, Invitrogen cat number R33200). Proteins were separated by electrophoresis on Bis-Tris 16% polyacrylamide gels and transferred to nitrocellulose filters. APP-CTFβ was detected using 26D6-HRP, and APP-CTFα was detected using ct695 polyclonal (Invitrogen, cat number 51-2700) and secondary goat anti-rabbit horseradish peroxidase conjugate (Zymed, catalog number 62-6120). Chemiluminescence images were captured and quantified using an imaging station (Fuji model number LAS-3000). The ct695 western blots also show APP-CTFβ, which migrates as a fainter band above APP-CTFα under these conditions. To confirm the consistency of sample loading, the APP-CTF western blots were reprobed for glyceraldehyde-3-phosphate dehydrogenase (GAPDH) using monoclonal 1D4 (Enzo Life Sciences, cat number CSA-335).
Figure 4 BMS-869780 had minimal effect on APP-CTF accumulation in vitro. H4-APPsw cell cultures were treated overnight with the indicated concentrations of BMS-869780, BMS-299897 or vehicle (0.1% DMSO). (a) Cells were harvested and analyzed by western blotting for APP-CTFα, APP-CTFβ, and GAPDH. Lane 1; culture treated with vehicle 0.1% DMSO. Lanes 2–5; cultures treated with BMS-869780 at 100 nM, 300 nM, 1000 nM, or 3000 nM, respectively. Lanes 6–8; cultures treated with BMS-299897 at 30 nM, 100 nM, or 300 nM, respectively. (b) Levels of Aβ1-42 (red; left Y-axis), Aβ1-40 (green; right Y-axis), and Aβ1-x (grey; right Y-axis) were quantified.

[2] = test system: Aβ1-40 (H4-APPsw); test: Aβ1-40 time-resolved fluorescence immunoassay in H4-APPsw cell cultures; type: cell-based, human; details: for IC50: Homo sapiens, H4-APPsw cultures treated overnight
Method: H4-APPsw cell cultures were maintained on Dulbecco's modified Eagle's medium (DMEM) supplemented with L-glutamine (2 mM), fetal bovine serum (10%), and G418 (100 μg/mL). […] Aβ1-42 and Aβ1-40 assays, and Notch inhibition assays, were carried out as described previously. Mouse embryonic fibroblasts deficient in PS1 and PS2 (MEF dKO) were passaged twice per week in DMEM/F-12 medium, consisting of a 1 : 1 mixture of DMEM and F-12 nutrient mixture supplemented with 10% fetal bovine serum, penicillin, and streptomycin. For expression of human presenilin-1 in MEF dKO cells, the full length human presenilin-1 cDNA open reading frame was cloned between the BamHI and XhoI sites of the vector pcDNA5/FRT (Invitrogen), placing presenilin-1 expression under the control of the CMV promoter. The M146V mutated allele was introduced into the presenilin-1 expression construct by polymerase chain reaction using the oligonucleotide primers 5′-[…]-3′ and 5′-[…]-3 (QuikChange kit, Invitrogen). MEF dKO cultures were cotransfected with DNA constructs expressing APP-CTF, encoding the C-terminal 99 amino acids of APP [61] and either the human presenilin-1 or presenilin-1 M146V allele. Transfected cultures were incubated overnight at 37°C in 5% CO2 atmosphere and then harvested, resuspended in DMEM/F-12 medium, dispensed into 96-well culture plates, and incubated for 6 hours at 37°C in 5% CO2 atmosphere. Culture medium was then replaced with Ultraculture serum free medium (Lonza, Rockland, ME) with or without compounds at a range of concentrations and incubated overnight.
IC50 determinations for Aβ1-42 and Aβ1-40 in H4-APPsw cultures in 384-well format were determined using homogeneous time-resolved fluorescence immunoassays as previously described. The principle of these assays is illustrated in Figures 1(c) and 1(d). In other experiments using H4-APPsw cultures, Aβ was quantified by ELISA; for Aβ1-42 the combination of monoclonal antibodies was 26D6 and 565-HRP; for Aβ1-40 it was TSD and 26D6-HRP, and for Aβ1-x it was 4G8 and 26D6-HRP. In some experiments a novel 4-plex Aβ electrochemiluminescence immunoassay was used (Mesoscale Discovery catalog number N45ZA-1). Briefly, the 4-plex was carried out in 96-well format, with 4 separate spots of capture antibodies in each well. […] For Aβ in transiently transfected PS1/PS2 dKO fibroblasts, Aβ1-42 was quantified using an ELISA kit (WACO), and Aβ1-40 was quantified by ELISA as described above for H4-APPsw cultures. […] For the rat and mouse experiments illustrated in Figures 7 and 8, brain samples were prepared by solid phase extraction, and endogenous rat brain Aβ1-42 and Aβ1-40 were quantified by ELISA as previously described for wild type mice. […]

C[C@H](c1ccc(F)cc1CCCC(=O)O)N(c1cc(F)ccc1F)S(=O)(=O)c1ccc(Cl)cc1 [BMS-299897, reference compound]
increase in APP-CTFα [1]: 8 fold | APP-CTFβ levels [1]: not affected | IC50 [2]: 1.3 nM

COc1cc(Nc2nc3n(n2)CCCC[C@H]3c2ccc(F)cc2)ccc1-n1cnc(Cl)c1 [BMS-869780]
increase in APP-CTFα [1]: 1.4 fold | APP-CTFβ levels [1]: not affected | shift in IC50 values between Aβ1-42 and Aβ1-40 ([2]; H4-APPsw): 4 fold | IC50 [2]: 24.1 nM
